# Laboratory results from patent US20230049115A1, “SYSTEM AND METHOD FOR TARGET THERMAL ANALYSIS IN COMPLEX FLUIDS” (Portland State University, priority 2021, published 2023).
# Values joined by “and” are separate entries in the source; they are usually repeats but may differ in a detail not shown here. Equal values may be shown once.
# Assays:
# [1] = DSC melting temperature of pure proteins and DNA hairpin in standard buffer (Example 2); assay type: physicochemical; conditions: standard buffer pH=7.4, independent of concentration
# Procedure: Chemicals and reagents: Standard buffer for all experiments contained 150 mM NaCl, 10 mM potassium phosphate, 15 mM sodium citrate adjusted to pH=7.4 with hydrochloric acid. Pure Proteins: Human Serum Albumin (HSA) (≥99% pure, Lot number: SLBT8667) and lysozyme (recombinant, expressed in rice, Lot number: SLCH2681). The above proteins were prepared in standard buffer and stored at 4° C. for at least 24 hours before use. Concentrations of HSA and lysozyme were confirmed spectrophotometrically at A280.
# DNA: The DNA was a 20-base pair hairpin purchased from IDT and received following a standard desalting routine. […] Lyophilized DNA was resuspended in standard buffer and stored at 4° C. DNA concentration matched the manufacturer specification as determined spectrophotometrically at A260.
# DSC Measurements: DSC melting experiments were made using a CSC differential scanning microcalorimeter (now T.A. instruments, New Castle, Del.). […]
# Baselines of the raw ΔCp or μcal versus temperature thermograms were determined using a four-point polynomial fit, over the temperature range of the transition, consistent with previous methods (Eskew et al., Anal Biochem 2021, 612:113843; Koslen et al., Adv in Biol Chem 2019, 9; Eskew et al., Anal Biochem 2021, 628:114293). […]
# streptavidin = biological target: T1, streptavidin (Streptomyces avidinii, UniProt P22629); experiment: DSC thermogram shift on streptavidin-biotin binding, in buffer and in reconstituted E. coli lysate; conditions: for Streptavidin + Biotin Tm: 2 molar equivalents of biotin
# T1 construct: purchased Alfa Aesar
# T1 sequence (P22629 25-183): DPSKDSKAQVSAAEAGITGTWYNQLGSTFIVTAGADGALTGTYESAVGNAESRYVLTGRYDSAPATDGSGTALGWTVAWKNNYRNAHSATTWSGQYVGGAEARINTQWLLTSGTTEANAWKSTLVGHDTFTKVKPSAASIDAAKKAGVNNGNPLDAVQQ
# Procedure: (§1) Preparation of Samples for DSC Measurements: E. coli lysate was prepared by resuspending powdered lysate in standard PBS buffer to make a 2.7 mg/mL lysate solution. The HEK923 cell lysate was the supernatant after initial centrifugation of the crude cell lysate and received in liquid form at unknown concentration. […] Streptavidin, captopril, lisinopril, and biotin were prepared in standard buffer. All samples were incubated for 24 hours at 4° C.
# (§2) DSC Measurements: DSC melting experiments were made using a CSC differential scanning microcalorimeter (now T.A. instruments, New Castle, Del.). Samples were prepared by adding specific reaction components to pre-prepared media. For DSC melting experiments, the sample heating rate was approximately 1° C./min while monitoring changes in the excess heat (microwatts) of the sample versus temperature. […] Since all experiments involved investigating interactions of ligands with proteins using DSC, we were interested in testing the sensitivity or our approach to detect proteins and protein/ligand interactions in the background solution comprised of the crude cell lysate. Consequently, all DSC measurements were made on samples in the lysate media, E. coli lysate or HEK923 supernatant, where samples were prepared. Thermograms were acquired for the complex media background, several proteins, and mixtures of these proteins with ligands, i.e. drugs or other another protein.
# (§3) Data Reduction and Analysis: Where the protein concentration was known, further refinement and normalization of the data provided the familiar DSC melting curve in the form of a plot of excess heat capacity, ΔCP, of the sample as a function of increasing temperature. Plots of ΔCP versus temperature are commonly termed DSC thermograms. In this case, the enthalpy of the transition can be estimated from the integrated area under the thermogram. These enthalpies can be used to gain valuable insight into protein structural stability (Eskew et al., Anal Biochem 2021, 612:113843). […] For these measurements, meaningful transition enthalpies cannot be determined.
# (§4) Baselines of the raw ΔCP or μW versus temperature thermograms for E. coli were determined using a three point polynomial fit, over the temperature range of the transition, which produced a nearly straight line from 40° C. to 110° C. Baselines of the raw ΔCP or μW versus temperature thermograms for HEK293 samples were determined by connecting a straight line between data points at 40° C. and 100° C. This baseline was then subtracted from the raw curves, producing baseline corrected thermograms used for further comparisons and analysis. Between initial and final temperatures, ΔCp, for proteins is known to vary from 7-10 kcal/mol·K (Watanabe et al., Pharm Res. 2001, 18:1775-1781; Shrake et al., Vox sanguinis 1984, 47:7-18). Baseline choices served to effectively remove this difference (Eskew et al., Anal Biochem 2021, 612:113843; Lang et al., Biotechnology Progress 2015, 31:62-69). […] For all experiments thermograms of the media alone served as the background that was subtracted from thermograms of samples containing drugs and/or proteins in the same media. These difference thermograms provided enhanced visualization of sample-specific changes, corresponding predominantly to the ligand/protein interactions of concern.
# Streptavidin-Biotin: Initial investigations explored streptavidin-biotin binding in reconstituted E. coli lysate. Binding behavior was examined under several conditions meant to mimic what might be encountered in an actual expression system. FIGS. 4A-4D and 5A-5D present results of this initial study. The thermogram of the E. coli lysate alone served as the background against which streptavidin-biotin binding was examined. Along with that of the media (alone) thermograms for lysate solutions containing streptavidin in different amounts, and streptavidin plus two molar equivalents of biotin in the background media solution are also shown in FIGS. 4A-4D. […]
# [2] = biological target: T2, unpurified angiotensin converting enzyme 2 (ACE2) expressed in human embryonic kidney cells (HEK293) (Homo sapiens, UniProt Q9BYF1); assay type: binding
# T2 construct: the expressed region for the purchased ACE2 was from Gln18-Ser740; His-tag; purchased RayBiotech Lot number: 02U2802LL; host or cells: HEK293
# T2 sequence (Q9BYF1 18-740): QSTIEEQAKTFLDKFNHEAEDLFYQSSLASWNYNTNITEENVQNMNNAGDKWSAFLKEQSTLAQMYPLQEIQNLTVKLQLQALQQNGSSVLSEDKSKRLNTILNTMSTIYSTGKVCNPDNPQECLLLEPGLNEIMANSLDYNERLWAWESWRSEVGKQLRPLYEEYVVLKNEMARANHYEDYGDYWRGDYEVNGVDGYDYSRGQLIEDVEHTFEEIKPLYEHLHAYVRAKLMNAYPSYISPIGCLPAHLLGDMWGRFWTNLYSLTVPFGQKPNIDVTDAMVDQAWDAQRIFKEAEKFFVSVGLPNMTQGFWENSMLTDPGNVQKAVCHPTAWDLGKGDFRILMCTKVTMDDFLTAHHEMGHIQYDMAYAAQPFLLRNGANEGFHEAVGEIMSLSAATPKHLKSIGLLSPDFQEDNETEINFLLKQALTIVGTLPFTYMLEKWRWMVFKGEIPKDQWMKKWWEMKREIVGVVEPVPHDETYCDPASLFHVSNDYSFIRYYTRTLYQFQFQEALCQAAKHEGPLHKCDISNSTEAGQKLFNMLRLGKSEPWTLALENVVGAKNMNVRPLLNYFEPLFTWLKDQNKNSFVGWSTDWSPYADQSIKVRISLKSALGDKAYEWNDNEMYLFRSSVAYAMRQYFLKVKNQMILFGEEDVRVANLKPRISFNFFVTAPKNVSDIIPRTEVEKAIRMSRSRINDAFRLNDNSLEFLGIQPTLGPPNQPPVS
# COVID-19 = conditions: cited from earlier work
# ACE2 = conditions: previous molecular docking studies; cited from earlier work
# [3] = DSC thermogram of the protein alone (Example 1: buffer, E. coli lysate or HEK293 supernatant background subtracted); assay type: physicochemical
# Procedure: as §1, §2, §3, §4
# The thermogram measured for the supernatant, without ACE2 present, served as the background against which comparisons were made. […] These curves have similar shapes but there is a clear difference for the thermogram of the supernatant containing ACE2. To isolate and enhance the specific contributions to the thermogram of ACE2 protein, the background thermogram for the supernatant alone was subtracted from that for ACE2 in the supernatant. […] This observation is in precise agreement with published results of DSC measurements on unmodified ACE2, that also found two peaks at precisely the same temperatures (Voronov et al., FEBS Letters 2002, 522:77-82). […]
# [4] = 1 mg/mL Streptavidin (33%, Condition-II), E. coli lysate
# [5] = 1 mg/mL Streptavidin (control), in buffer
# [6] = 2 mg/mL Streptavidin (11%, Condition-III), E. coli lysate
# [7] = 2 mg/mL Streptavidin (33%, Condition-I), E. coli lysate
# [8] = Conditions-I and II, difference thermograms FIGS. 5A and 5B
# [9] = unpurified ACE2 in HEK293 supernatant, background subtracted (FIG. 6B)
compound,measurement,setting,value
"5′-CGGGCGCGTTTTCGCGCCCG-3′ (DNA CGGGCGCGTTTTCGCGCCCG; DNA, backbone and methylation of C not given here; hairpin) [DNA hairpin, 20-base single strand oligomer forming an intramolecular stem-loop hairpin, DNA standard molecule]",Tm,[1],94.34±0.06 °C
"O=C(O)CCCC[C@@H]1SC[C@@H]2NC(=O)N[C@@H]21 [Biotin, biotin]",Streptavidin + Biotin Tm,streptavidin; [4],79.96 ± 0.36 °C
same,Streptavidin + Biotin Tm,streptavidin; [5],79.17 ± 0.06 °C
same,Streptavidin + Biotin Tm,streptavidin; [6],80.71 ± 0.12 °C
same,Streptavidin + Biotin Tm,streptavidin; [7],81.16 ± 0.07 °C
same,shift up of streptavidin melting temperature with biotin,streptavidin; Conditions I-III,1-2 °C
same,shift in Tm for the dominant peak on addition of biotin,streptavidin; [8],~1 °C
same,temperature shift of streptavidin thermogram with biotin,streptavidin; in E. coli lysate at decreased concentrations,1.4 °C and 0.9 °C
same,reduction in peak height of streptavidin thermogram with biotin binding,streptavidin; streptavidin (1 mg/mL) + 2 molar equivalents biotin in buffer (FIG. 5D),20%
C[C@H](CS)C(=O)N1CCC[C@H]1C(=O)O [Captopril],binding to / effect on ACE2 from difference thermogram,[2],relatively lesser effect on ACE2
NCCCC[C@H](N[C@@H](CCc1ccccc1)C(=O)O)C(=O)N1CCC[C@H]1C(=O)O [Lisinopril],inhibiting COVID-19 infection,COVID-19,ineffective
same,binding to ACE2 compared with captopril (docking),ACE2,stronger binder to ACE2
"ACE2: unpurified angiotensin converting enzyme 2 expressed in HEK293 cells, Gln18-Ser740, RayBiotech",difference thermogram peak temperature (peak assigned to C-domain),[3]; [9],55.6 °C
same,difference thermogram peak temperature (peak assigned to N-domain),[3]; [9],70.6 °C
Streptavidin,Streptavidin Tm,[3]; [4],79.03 ± 0.18 °C
same,Streptavidin Tm,[3]; [5],77.39 ± 0.05 °C
same,Streptavidin Tm,[3]; [6],79.82 ± 0.10 °C
same,Streptavidin Tm,[3]; [7],79.70 ± 0.02 °C
same,melting temperature of streptavidin without biotin,[3]; Conditions I-III,around 80 °C
same,streptavidin peak temperature,[3]; [8],~79 °C
"lysozyme: lysozyme, recombinant, expressed in rice",Tm,[1],64.77±0.16 °C
